According to article PMC9781117, “New 5-Aryl-1,3,4-Thiadiazole-Based Anticancer Agents: Design, Synthesis, In Vitro Biological Evaluation and In Vivo Radioactive Tracing Studies” (Pharmaceuticals, 2022):
Values after ≈ are worked out from the molar mass of the structure shown.

Assays:
[1] = test system: HepG2 human hepatocellular carcinoma cells; assay: MTT cytotoxicity assay, HepG2; format: cell-based; details: MTT, 48 h, means ± SD of three independent experiments; for IC50: Homo sapiens, HepG2
Method: (§1) The in vitro cytotoxicity of the synthesized 1,3,4-thiadiazole derivatives against breast adenocarcinoma cells (MCF-7) and human hepatocellular carcinoma (HepG2) cell lines were evaluated by the MTT assay, using 5-Fluorouracil (5-FU) as a positive control.
(§2) Human hepatocellular carcinoma (HepG2) cells and breast adenocarcinoma (MCF7) cells were purchased from the American Type Culture Collection (ATCC, USA). Under 37 °C with 5% CO2 in a humid incubator, cells were propagated using RPMI supplemented with 10% fetal bovine serum (FBS) and 1% v/v penicillin-streptomycin.
(§3) According to Tim Mosmann’s approach, an MTT assay was performed to assess the antiproliferative properties of the compounds. In short, HepG2 or MCF7 cells (0.5 × 105) were grown in flat-bottom 96-well microplates in 180 μL/well RPMI media supplemented with 10% fetal bovine serum, 2μmol/mL L-glutamine, 250 ng/mL fungizone, and 100 units/mL penicillin-streptomycin solutions at 37 °C in a CO2 incubator. Following incubation, 180 μL/well of the new serum-free medium was added to each well after the old media had been withdrawn. After that, cells were exposed to 20 μL of various concentrations of the compounds (50–0.75 μg/mL) and were incubated for 48 h at 37 °C in a humidified 5% CO2 environment. The MTT solution (20 µL/well) was added and incubated for a further 4 h. The plate was agitated at room temperature while acidified isopropanol (160 μL/well) was added to dissolve the formazan crystals. The absorbance at 570 nm was then determined photometrically using the microplate ELISA reader (FLUOstar Omega, BMG, Labtech, Germany). Graph-Pad PRISM version 6 was used to determine the IC50 for each compound.

[2] = test system: MCF-7 breast adenocarcinoma cells; assay: MTT cytotoxicity assay, MCF-7; format: cell-based, human; details: for IC50 MCF-7 / IC50: MTT, 48 h, means ± SD of three independent experiments; for IC50: Homo sapiens, MCF7; for fold increase in activity relative to parent analogue: MCF-7, 4d vs 4c, 5b, 5c, 5d vs 5a
Method: as §1, §2, §3

[3] = test system: breast cancer MCF-7 cells; design: method as in PMID 22261027; details: cited from earlier work

Q: For “4-((5-(4-Chlorophenyl)-1,3,4-Thiadiazol-2-yl)Imino)-N-Phenyl-4,5-Dihydrothiazol-2-Amine [Compound 5a]”, which “IC50 HepG2” value [1] is on record?
A: The value was 26.12 ± 2.02 µg/mL.

Q: What about the “IC50 MCF-7” value [2] of the same compound?
A: Its value is 24.79 ± 2.30 µg/mL.

Q: For “N-(4-Bromophenyl)-4-((5-(4-Chlorophenyl)-1,3,4-Thiadiazol-2-yl)Imino)-4,5-Dihydrothiazol-2-Amine [Compound 5e]”, which “IC50 HepG2” value [1] is on record?
A: The value was 25.77 ± 0.64 µg/mL.

Q: What about the “IC50 MCF-7” value [2] of the same compound?
A: Its value is 3.77 ± 0.13 µg/mL.

Q: With `COc1ccc(/C=C/C(=O)Nc2nnc(-c3ccc(OC)cc3)s2)cc1` [II] as the compound, how does the “IC50 MCF-7 growth inhibition” value [3] read?
A: Its value is 0.28 µg/mL (≈ 0.762 µM).

Q: What about the “cell cycle effect in MCF-7 cells” value [3] of the same compound?
A: Its value is “cell cycle arrest at the G2/M phase”.

Q: With `O=C(CN1CCN(c2ccc(F)cc2)CC1)Nc1nnc(-c2ccc(Cl)cc2)s1` [Compound 4g, N-(5-(4-Chlorophenyl)-1,3,4-Thiadiazol-2-yl)-2-(4-(4-Fluorophenyl)Piperazin-1-yl)Acetamide] as the compound, how does the IC50 [1] read?
A: Its IC50 is 13.9 ± 0.59 µg/mL (≈ 32.1 µM).

Q: What about the IC50 [2] of the same compound?
A: Its IC50 is 10.1 ± 1.2 µg/mL (≈ 23.4 µM).

Q: With `CCN1CCN(CC(=O)Nc2nnc(-c3ccc(Cl)cc3)s2)CC1` [Compound 4b, N-(5-(4-Chlorophenyl)-1,3,4-Thiadiazol-2-yl)-2-(4-Ethylpiperazin-1-yl)Acetamide] as the compound, how does the IC50 [1] read?
A: The IC50 was 3.55 ± 0.05 µg/mL (≈ 9.7 µM).

Q: And the IC50 [2]?
A: The IC50 was 25.2 ± 1.3 µg/mL (≈ 68.9 µM).

Q: Which results are given for “4-((5-(4-Chlorophenyl)-1,3,4-Thiadiazol-2-yl)Imino)-N-(4-Ethylphenyl)-4,5-Dihydrothiazol-2-Amine [Compound 5c]”?
A: IC50 HepG2 [1]: 11.25 ± 0.44 µg/mL; fold increase in activity relative to parent analogue [2]: 2- to 4 fold; IC50 MCF-7 [2]: 5.72 ± 0.17 µg/mL

Q: Which IC50 [1] does the source give for `O=c1[nH]cc(F)c(=O)[nH]1` [Compound 5-FU, 5-Fluorouracil, reference compound] here?
A: The IC50 was 8.4 ± 1.2 µg/mL (≈ 64.6 µM).

Q: What about the IC50 [2] of the same compound?
A: Its IC50 is 6.8 ± 0.9 µg/mL (≈ 52.3 µM).

Q: For `O=C(CN1CCN(c2ccccc2)CC1)Nc1nnc(-c2ccc(Cl)cc2)s1` [Compound 4c, N-(5-(4-Chlorophenyl)-1,3,4-Thiadiazol-2-yl)-2-(4-Phenylpiperazin-1-yl)Acetamide], which IC50 [1] is on record?
A: The IC50 was 27.9 ± 0.93 µg/mL (≈ 67.5 µM).

Q: What about the IC50 [2] of the same compound?
A: The IC50 was 49.4 ± 3.5 µg/mL (≈ 119 µM).

Q: Which IC50 [1] does the source give for `O=C(CN1CCN(C(=O)c2ccco2)CC1)Nc1nnc(-c2ccc(Cl)cc2)s1` [Compound 4h, N-(5-(4-Chlorophenyl)-1,3,4-Thiadiazol-2-yl)-2-(4-(Furan-2-Carbonyl)Piperazin-1-yl)Acetamide] here?
A: Its IC50 is 8.35 ± 0.15 µg/mL (≈ 19.3 µM).

Q: And the IC50 [2]?
A: The IC50 was 3.21 ± 0.3 µg/mL (≈ 7.43 µM).

Q: With `Cc1ccc(N2CCN(CC(=O)Nc3nnc(-c4ccc(Cl)cc4)s3)CC2)cc1` [Compound 4d, N-(5-(4-Chlorophenyl)-1,3,4-Thiadiazol-2-yl)-2-(4-(4-Tolyl)Piperazin-1-yl)Acetamide] as the compound, how does the melting point read?
A: The melting point was 222 to 224 °C.

Q: What about the IC50 [1] of the same compound?
A: Its IC50 is 44.9 ± 1.54 µg/mL (≈ 105 µM).

Q: And the IC50 [2]?
A: The IC50 was 21.8 ± 0.43 µg/mL (≈ 50.8 µM).

Q: What about the “fold increase in activity relative to parent analogue” value [2] of the same compound?
A: Its value is > 2 fold.

Q: With “4-((4-((5-(4-Chlorophenyl)-1,3,4-Thiadiazol-2-yl)Imino)-4,5-Dihydrothiazol-2-yl)Amino)Phenol [Compound 5d]” as the compound, how does the “IC50 HepG2” value [1] read?
A: Its value is 14.12 ± 0.01 µg/mL.

Q: And the “fold increase in activity relative to parent analogue” value [2]?
A: Its value is 2- to 4 fold.

Q: What about the “IC50 MCF-7” value [2] of the same compound?
A: Its value is 6.12 ± 0.51 µg/mL.

Q: What does the source list for `CCOc1ccc(N2CCN(CC(=O)Nc3nnc(-c4ccc(Cl)cc4)s3)CC2)cc1` [Compound 4f, N-(5-(4-Chlorophenyl)-1,3,4-Thiadiazol-2-yl)-2-(4-(4-Ethoxyphenyl)Piperazin-1-yl)Acetamide]?
A: melting point: 225 to 227 °C; IC50 [1]: 38.1 ± 0.14 µg/mL (≈ 83.2 µM); IC50 [2]: 18.4 ± 0.85 µg/mL (≈ 40.2 µM)

Q: Which melting point does the source give for `CN1CCN(CC(=O)Nc2nnc(-c3ccc(Cl)cc3)s2)CC1` [Compound 4a, N-(5-(4-Chlorophenyl)-1,3,4-Thiadiazol-2-yl)-2-(4-Methylpiperazin-1-yl)Acetamide] here?
A: Its melting point is 168 to 170 °C.

Q: And the IC50 [1]?
A: Its IC50 is 26.3 ± 5.76 µg/mL (≈ 74.7 µM).

Q: What about the IC50 [2] of the same compound?
A: Its IC50 is 51.56 ± 0.48 µg/mL (≈ 147 µM).

Q: For “4-((5-(4-Chlorophenyl)-1,3,4-Thiadiazol-2-yl)Imino)-N-(4-Tolyl)-4,5-Dihydrothiazol-2-Amine [Compound 5b]”, which “IC50 HepG2” value [1] is on record?
A: Its value is 8.81 ± 0.64 µg/mL.

Q: And the “fold increase in activity relative to parent analogue” value [2]?
A: Its value is 2- to 4 fold.

Q: And the “IC50 MCF-7” value [2]?
A: Its value is 12.64 ± 0.47 µg/mL.

Q: Which IC50 [1] does the source give for `O=C(C[n+]1ccccc1)Nc1nnc(-c2ccc(Cl)cc2)s1.[Cl-]` [Compound 3, 1-(2-((5-(4-Chlorophenyl)-1,3,4-Thiadiazol-2-yl)Amino)-2-Oxoethyl)Pyridinium Chloride] here?
A: Its IC50 is 13 ± 0.11 µg/mL.

Q: And the IC50 [2]?
A: The IC50 was 7.56 ± 1.2 µg/mL.
